Results on 13 compounds are retold here after PubChem BioAssay (NCI).

Among the test systems are NCI-H23 lung; HL-60(TB) leukemia; KM12 colon; A549 NSCLC; SR leukemia; K-562 leukemia; CCRF-CEM leukemia; SK-MEL-28 melanoma; DU-145 prostate; BT-549 breast.
Common to all, as to test: NCI tumour cell line growth inhibition, 48 h

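These data come from cells grown in 96-well plates and exposed to compound for 48 hours at five concentrations. GI50 = concentration required for 50% inhibition of growth. At the TGI there is no net growth.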 Some results are limits rather than exact numbers.

As for `c1ccc(SC(Sc2ccccc2)=C2CCC2)cc1`, the TGI in the test with NCI-H23 lung, in the test on HL-60(TB) leukemia, with KM12 colon, in the test with A549 NSCLC, in the test on SR leukemia and in the test on K-562 leukemia was more than 100 µM each time. Also, the TGI in the test with CCRF-CEM leukemia and in the test with SK-MEL-28 melanoma was more than 100 µM throughout.

Turning to `CCC[CH2][Sn](=[O])[CH2]CCC`, the GI50 in the test with NCI-H23 lung was more than 50 µM; in the test on HL-60(TB) leukemia it was more than 36.2 µM; in the test on KM12 colon, more than 50 µM; in the test with A549 NSCLC it was more than 50 µM; in the test on SR leukemia, more than 50 µM; with K-562 leukemia it was more than 50 µM. Moreover, the GI50 in the test with CCRF-CEM leukemia and in the test with SK-MEL-28 melanoma was more than 50 µM in each case. Moreover, the TGI in the test with NCI-H23 lung, with HL-60(TB) leukemia, with KM12 colon, in the test with A549 NSCLC, in the test with SR leukemia and in the test with K-562 leukemia was more than 50 µM each time. Also, the TGI in the test with CCRF-CEM leukemia and with SK-MEL-28 melanoma was more than 50 µM each time.

Regarding `CN(C)c1ccc(/C=c2\sc3nnc(-c4ccco4)n3c2=O)cc1`, the TGI in the test on NCI-H23 lung, with HL-60(TB) leukemia, in the test with KM12 colon, in the test with A549 NSCLC, in the test with K-562 leukemia and in the test on CCRF-CEM leukemia was more than 100 µM throughout. Further, in the test on SK-MEL-28 melanoma, the TGI was more than 100 µM.

With `CCCCCCCCCCCCSC(=S)c1c(C)[nH]n(-c2ccccc2)c1=O`, the TGI with NCI-H23 lung was 35.8 µM; in the test on HL-60(TB) leukemia, 24.4 µM; in the test on A549 NSCLC, more than 50 µM; in the test with K-562 leukemia, more than 50 µM; with CCRF-CEM leukemia, 23.2 µM; with SK-MEL-28 melanoma it was more than 50 µM.

In the case of `CCOC(=O)c1[nH]c2cc(Cl)ccc2c1[C@@H](C(=O)NC(C)(C)C)N(CC)C(=O)CCCCC#Cc1cccc2c1CN(C1CCC(=O)NC1=O)C2=O` (stereo not given in full), the GI50 in the test on NCI-H23 lung is 3.93 µM; in the test on HL-60(TB) leukemia it was less than 0.01 µM; with DU-145 prostate, 3.06 µM; in the test on KM12 colon, 0.901 µM; with A549 NSCLC, 1.3 µM; in the test with K-562 leukemia, 1.52 µM. Further, the GI50 in the test with CCRF-CEM leukemia is less than 0.01 µM; in the test on BT-549 breast, less than 0.0197 µM; with SK-MEL-28 melanoma, 2.29 µM. Also, the TGI in the test on NCI-H23 lung was 21.2 µM; in the test with HL-60(TB) leukemia, 0.0959 µM; in the test on DU-145 prostate, 46.8 µM; in the test with KM12 colon, more than 100 µM; with A549 NSCLC it was more than 89.4 µM; in the test on K-562 leukemia it was more than 100 µM. Besides, the TGI is more than 100 µM in the test with CCRF-CEM leukemia, 4.81 µM in the test with BT-549 breast and 25.5 µM in the test on SK-MEL-28 melanoma.

Take `CSc1cc([C@@H]2C[C@H]2c2ccc(Cl)cc2)on1`: the GI50 is 3.98 µM in the test on NCI-H23 lung; 19.6 µM with DU-145 prostate; 14.5 µM in the test with KM12 colon; 21.6 µM in the test on A549 NSCLC; 35.1 µM in the test with K-562 leukemia; 20.3 µM in the test on CCRF-CEM leukemia. The GI50 in the test on BT-549 breast was 23.9 µM; in the test with SK-MEL-28 melanoma, 24.5 µM. Further, the TGI in the test on NCI-H23 lung was 18.1 µM; with DU-145 prostate it was 42 µM; in the test with KM12 colon, 30.3 µM; in the test on A549 NSCLC it was more than 100 µM; in the test with K-562 leukemia, more than 100 µM; with CCRF-CEM leukemia it was 47.2 µM. Further, the TGI in the test on BT-549 breast amounted to 62 µM; in the test on SK-MEL-28 melanoma, 96.7 µM.

For `CC(C)(C)C(=O)N1C(C(=O)O)Cc2ccccc2[C@@H]1Cc1ccccc1` (stereo not given in full), the TGI in the test on NCI-H23 lung, in the test with HL-60(TB) leukemia, in the test with KM12 colon, with A549 NSCLC, with K-562 leukemia and in the test with CCRF-CEM leukemia was more than 100 µM in each case. In the test on SK-MEL-28 melanoma, this compound returned a TGI of more than 100 µM.

Regarding `Cc1ccc(NCC2(/N=C/c3ccccc3)OC(CO)C(O)C2O)cc1` (stereo not given), the TGI with NCI-H23 lung is more than 100 µM; with HL-60(TB) leukemia, 64.7 µM; with KM12 colon, more than 100 µM; in the test on A549 NSCLC it was more than 100 µM; in the test on SR leukemia, more than 100 µM; with K-562 leukemia it was more than 100 µM. For the same compound, the results for the TGI in the test on CCRF-CEM leukemia and with SK-MEL-28 melanoma were 99.2 µM and more than 100 µM, respectively.

With `CN(C)CCNc1ccc2ncn3c4ccc(O)cc4c(=O)c1c23`, the TGI in the test with NCI-H23 lung was 10.9 µM; with HL-60(TB) leukemia it was 13.6 µM; in the test on DU-145 prostate, 10.8 µM; with KM12 colon, more than 35.7 µM; in the test on A549 NSCLC, 4.26 µM; with K-562 leukemia, 29 µM. For the same compound, the TGI in the test on CCRF-CEM leukemia was 15.3 µM; in the test on BT-549 breast it was 28.1 µM; in the test with SK-MEL-28 melanoma, 18 µM.

Take `CC(Oc1ccc2c(-c3ccc(Cl)cc3)cc(=O)oc2c1)C(=O)O` (stereo not given): the TGI in the test on NCI-H23 lung, in the test with HL-60(TB) leukemia, in the test on KM12 colon, in the test on A549 NSCLC, in the test with SR leukemia and in the test with K-562 leukemia was more than 100 µM throughout. Also, the TGI in the test with CCRF-CEM leukemia and in the test with SK-MEL-28 melanoma was more than 100 µM each time.

Consider `COc1ccc2c(c1)c(-c1nc(-c3cn(C)c4ccncc34)cs1)cn2C`, for which the GI50 is 1.81 µM with NCI-H23 lung; 1.96 µM in the test with HL-60(TB) leukemia; 1.78 µM with DU-145 prostate; 1.84 µM in the test with KM12 colon; 1.93 µM with A549 NSCLC; 1.9 µM in the test with K-562 leukemia. Moreover, the GI50 was 2.15 µM with CCRF-CEM leukemia and 1.71 µM with SK-MEL-28 melanoma. In addition, the TGI with NCI-H23 lung was found to be 3.45 µM; in the test on HL-60(TB) leukemia, 4.49 µM; in the test on DU-145 prostate, 3.34 µM; in the test on KM12 colon it was 3.41 µM; with A549 NSCLC it was 3.99 µM; in the test on K-562 leukemia, 4.2 µM. Further, the TGI with CCRF-CEM leukemia is 6.05 µM; in the test with SK-MEL-28 melanoma, 3.15 µM.

Turning to `Nc1nc(=O)n(C2CCC(CO)O2)cc1F` (stereo not given), the TGI in the test on NCI-H23 lung, in the test on HL-60(TB) leukemia, in the test on KM12 colon, with A549 NSCLC, with K-562 leukemia and with CCRF-CEM leukemia was more than 100 µM in each case. Besides, the TGI in the test on SK-MEL-28 melanoma is more than 100 µM.

With `COc1ccc(/C=C/c2cc(OC)c(OC(C)=O)c(OC)c2)cc1`, the TGI was 61.4 µM in the test with NCI-H23 lung, more than 100 µM in the test on A549 NSCLC, more than 100 µM in the test on CCRF-CEM leukemia and 25.3 µM in the test on SK-MEL-28 melanoma.
